Data taken from BindingDB's records for doi:10.7270/Q20863RR (Nmmlsc, 2010).
pKi: −log10 of the molar value.

Target: T1, Regulator of G-protein signaling 7 (Homo sapiens, UniProt P49802)
T1 sequence (P49802 whole entry): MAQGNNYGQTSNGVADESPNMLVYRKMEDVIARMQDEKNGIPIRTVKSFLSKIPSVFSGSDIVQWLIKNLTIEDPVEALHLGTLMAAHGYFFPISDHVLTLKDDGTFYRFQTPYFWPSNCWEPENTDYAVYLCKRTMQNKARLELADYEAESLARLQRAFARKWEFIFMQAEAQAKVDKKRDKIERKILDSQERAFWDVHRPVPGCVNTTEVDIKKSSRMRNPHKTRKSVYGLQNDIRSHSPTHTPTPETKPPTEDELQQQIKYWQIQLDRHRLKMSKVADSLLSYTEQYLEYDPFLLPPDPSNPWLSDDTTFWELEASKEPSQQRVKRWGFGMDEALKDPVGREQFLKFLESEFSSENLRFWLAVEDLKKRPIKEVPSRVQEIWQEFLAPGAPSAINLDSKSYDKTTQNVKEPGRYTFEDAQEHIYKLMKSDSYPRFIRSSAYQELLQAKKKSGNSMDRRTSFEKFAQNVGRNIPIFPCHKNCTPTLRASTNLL
Test: RGS7-Galphao binding modulators, SAR follow-up, biochemical, multiplexed bead flow cytometry, SAR compounds (AID 2296)

pKi: 6.92
SMILES: NS(=O)(=O)c1ccc(N=NCc2ccc(O)c(O)c2O)c([N+](=O)[O-])c1 [4-[[(E)-(2,3-dihydroxy-4-oxo-1-cyclohexa-2,5-dienylidene)methyl]hydrazo]-3-nitrobenzenesulfonamide]
